This assay relates to subjects with chronic hepatitis C virus (HCV) associated thrombocytopenia. Put plainly: placebo controlled, double blind, dose-ranging study of Compound A before and with IFN and ribavirin. In kind it is in vivo, human. Particulars: for Median platelet count at Week 4: 4 weeks. The protocol:
The safety, tolerability, efficacy and pharmacokinetics of repeat oral daily doses of 3′-{N′-[1-(3,4-Dimethylphenyl)-3-methyl-5-oxo-1,5-dihydropyrazol-4-ylidene]hydrazino}-2′-hydroxybiphenyl-3-carboxylic acid bis-(monoethanolamine);
(hereinafter Compound A) in subjects with chronic hepatitis C virus (HCV) associated thrombocytopenia, which precluded initiation of treatment with pegylated interferon (IFN) and ribavirin is assessed in this study.
HCV infected subjects with compensated cirrhosis and platelet counts between 20-70,000/ul were randomly allocated to 1 of 4 treatment groups (30, 50, 75 mg eltrombopag or placebo). During Part 1, Compound A was administered in tablet form once daily for 4 weeks. Subjects who achieved platelet counts of >70,000/ul at the end of Part 1 were eligible to enter Part 2, during which subjects initiated therapy with IFN and ribavirin and continued their randomized treatment for a maximum of 12 weeks. A follow-up visit was performed 4 weeks after last dose of study drug. The primary endpoint was defined as an increase in platelet count to 100,000/ul at Week 4.

The mark [1] stands for this setting: range over the Compound A groups (30, 50, 75 mg).

With `CC1=NN(c2ccc(C)c(C)c2)C(=O)C1=NNc1cccc(-c2cccc(C(=O)O)c2)c1O` [Compound A, 3′-{N′-[1-(3,4-Dimethylphenyl)-3-methyl-5-oxo-1,5-dihydropyrazol-4-ylidene]hydrazino}-2′-hydroxybiphenyl-3-carboxylic acid bis-(monoethanolamine)], the “Median platelet count at Week 4” value (30 mg once daily oral) came out at 136500 µL⁻¹, the “Median platelet count at Week 4” value (50 mg once daily oral) was determined as 213500 µL⁻¹ and the “Median platelet count at Week 4” value (75 mg once daily oral) came out at 209000 µL⁻¹. Besides, the “platelet counts at Day 28” value (all treatment groups (30, 50, 75 mg)) is reported as “increased platelet counts”. For the same compound, under setting [1], the “subjects completing 12 weeks of antiviral therapy” value was 36-65%. Under setting [1], the “subjects who completed 12 weeks of antiviral therapy” value is recorded as 5-15 subjects.

(Values after patent publication US20120020923A1, “Method of treating viral diseases with combinations of TPO receptor agonist and anti-viral agents” (priority 2006, published 2012).)
